Measurements from patent US9108983B2, “Pyrrole compounds, a process for their preparation and pharmaceutical compositions containing them” (LES LABORATOIRES SERVIER, priority 2013, dated 2015).
Structures can show the parent of a compound that is named as a salt. Where two headings read alike, the source gives them in different places.

Columns and labels:
[1] = molecular target: Bcl-2 protein (histag-Bcl-2, UniProtKB P10415) (Homo sapiens (Human), UniProt P10415); assay: Inhibition of Bcl-2 by the fluorescence polarisation technique; type: binding; conditions: incubation for 2 hours, read-out: IC50 (nM) Bcl-2 FP
Chain of Bcl-2 protein (P10415 whole entry): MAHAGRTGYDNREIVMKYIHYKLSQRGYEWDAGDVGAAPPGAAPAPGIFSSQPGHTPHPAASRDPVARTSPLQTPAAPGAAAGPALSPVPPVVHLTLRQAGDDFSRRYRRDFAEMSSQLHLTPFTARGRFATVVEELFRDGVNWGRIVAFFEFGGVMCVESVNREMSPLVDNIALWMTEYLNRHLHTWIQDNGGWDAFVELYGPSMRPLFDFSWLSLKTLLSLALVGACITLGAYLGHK
Procedure: The fluorescence polarisation tests were carried out on microplates (384 wells). The Bcl-2 protein, labelled (histag-Bcl-2 such that Bcl-2 corresponds to the UniProtKB® primary accession number: P10415), at a final concentration of 2.50×10^−8 M, is mixed with a fluorescent peptide (Fluorescein-[…]), at a final concentration of 1.00×10^−8 M in a buffer solution (Hepes 10 mM, NaCl 150 mM, Tween20 0.05%, pH 7.4), in the presence or absence of increasing concentrations of test compounds. After incubation for 2 hours, the fluorescence polarisation is measured.

[2] = tested on: RS4;11 leukaemia tumour line; assay: In vitro cytotoxicity (Microculture Tetrazolium Assay); type: cell-based; conditions: Homo sapiens, RS4;11 cells, exposed for 48 hours, cell viability, read-out: IC50 (nM) MTT RS4;11
Procedure: The cytotoxicity studies were carried out on the RS4;11 leukaemia tumour line.
The cells are distributed onto microplates and exposed to the test compounds for 48 hours.
The cell viability is then quantified by a colorimetric assay, the Microculture Tetrazolium Assay (Cancer Res., 1987, 47, 939-942).

Cc1c(C(=O)N(c2ccc(O)cc2)c2cnc3c(c2)CCN3C)cc(-c2cc(F)ccc2C(=O)N2Cc3ccccc3C[C@H]2CN2CCOCC2)n1C [Example 434, 5-(5-Fluoro-2-{[(3S)-3-(morpholin-4-ylmethyl)-3,4-dihydroisoquinolin-2(1H)-yl]carbonyl}phenyl)-N-(4-hydroxyphenyl)-1,2-dimethyl-N-(1-methyl-2,3-dihydro-1H-pyrrolo[2,3-b]pyridin-5-yl)-1H-pyrrole-3-carboxamide hydrochloride]
IC50 [1]: 3.5 nM | IC50 ([2]; RS4-11, 48 h): 45.7 nM

Cc1c(C(=O)N(C)c2ccc(O)cc2)cc(-c2cc(CCNS(=O)(=O)CCc3ccc(F)cc3)ccc2C(=O)N2Cc3ccccc3C[C@H]2C)n1C [Example 55, 5-(5-[2-({[2-(4-Fluorophenyl)ethyl]sulphonyl}amino)ethyl]-2-{[(3R)-3-methyl-3,4-dihydroisoquinolin-2(1H)-yl]carbonyl}phenyl)-N-(4-hydroxyphenyl)-N,1,2-trimethyl-1H-pyrrole-3-carboxamide]
IC50 [1]: 210 nM | IC50 ([2]; RS4-11, 48 h): > 600 nM

Cc1c(C(=O)N(c2ccc(O)cc2)c2cnccn2)cc(-c2cc(Cl)ccc2C(=O)N2Cc3ccccc3C[C@H]2CN2CCOCC2)n1C [Example 438, 5-(5-Chloro-2-{[(3S)-3-(morpholin-4-ylmethyl)-3,4-dihydroisoquinolin-2(1H)-yl]carbonyl}phenyl)-N-(4-hydroxyphenyl)-1,2-dimethyl-N-(pyrazin-2-yl)-1H-pyrrole-3-carboxamide hydrochloride]
IC50 [1]: 11.3 nM | IC50 ([2]; RS4-11, 48 h): 379 nM

CCn1c(C#N)cc(N(C(=O)c2cc(-c3cc(Cl)ccc3C(=O)N3Cc4ccccc4C[C@H]3CN3CCOCC3)n(C)c2C)c2ccc(O)cc2)c1C [Example 459, 5-(5-Chloro-2-{[(3S)-3-(morpholin-4-ylmethyl)-3,4-dihydroisoquinolin-2(1H)-yl]carbonyl}phenyl)-N-(5-cyano-1-ethyl-2-methyl-1H-pyrrol-3-yl)-N-(4-hydroxyphenyl)-1,2-dimethyl-1H-pyrrole-3-carboxamide hydrochloride]
IC50 [1]: 2.5 nM | IC50 ([2]; RS4-11, 48 h): 5.93 nM

Cc1cc(N(C(=O)c2cc(-c3cc(Cl)ccc3C(=O)N3Cc4ccccc4C[C@H]3CN3CCOCC3)n(C)c2C)c2ccc(O)cc2)no1 [Example 462, 5-(5-Chloro-2-{[(3S)-3-(morpholin-4-ylmethyl)-3,4-dihydroisoquinolin-2(1H)-yl]carbonyl}phenyl)-N-(4-hydroxyphenyl)-1,2-dimethyl-N-(5-methyl-1,2-oxazol-3-yl)-1H-pyrrole-3-carboxamide]
IC50 [1]: 13.3 nM | IC50 ([2]; RS4-11, 48 h): 368 nM

Cc1c(C(=O)N(c2ccncc2)c2ccc(O)cc2)cc(-c2cc3c(cc2C(=O)N2Cc4ccccc4C[C@H]2C)OCO3)n1C [Example 61, N-(4-Hydroxyphenyl)-1,2-dimethyl-5-(6-{[(3R)-3-methyl-3,4-dihydroisoquinolin-2(1H)-yl]carbonyl}-1,3-benzodioxol-5-yl)-N-(pyridin-4-yl)-1H-pyrrole-3-carboxamide hydrochloride]
IC50 [1]: 4.5 nM | IC50 ([2]; RS4-11, 48 h): 37.8 nM

CNCCn1c(-c2cc3c(cc2C(=O)N2Cc4ccccc4C[C@H]2C)OCO3)cc(C(=O)N(c2ccc(O)cc2)c2cnn(C)c2)c1C [Example 26, N-(4-Hydroxyphenyl)-2-methyl-1-[2-(methylamino)ethyl]-5-(6-{[(3R)-3-methyl-3,4-dihydroisoquinolin-2(1H)-yl]carbonyl}-1,3-benzodioxol-5-yl)-N-(1-methyl-1H-pyrazol-4-yl)-1H-pyrrole-3-carboxamide hydrochloride]
IC50 [1]: 4.1 nM | IC50 ([2]; RS4-11, 48 h): 541 nM

Cc1c(C(=O)N(c2ccncc2)c2ccc(O)cc2)cc(-c2cc(F)ccc2C(=O)N2Cc3ccccc3C[C@H]2CN2CCOCC2)n1C [Example 384, 5-(5-Fluoro-2-{[(3S)-3-(morpholin-4-ylmethyl)-3,4-dihydroisoquinolin-2(1H)-yl]carbonyl}phenyl)-N-(4-hydroxyphenyl)-1,2-dimethyl-N-(pyridin-4-yl)-1H-pyrrole-3-carboxamide hydrochloride]
IC50 [1]: 9.7 nM | IC50 ([2]; RS4-11, 48 h): 216 nM

Cc1c(C(=O)N(c2ccc(O)cc2)c2cnn(C3COC3)c2)cc(-c2cc(F)ccc2C(=O)N2Cc3ccccc3C[C@H]2CN2CCOCC2)n1C [Example 423, 5-(5-Fluoro-2-{[(3S)-3-(morpholin-4-ylmethyl)-3,4-dihydroisoquinolin-2(1H)-yl]carbonyl}phenyl)-N-(4-hydroxyphenyl)-1,2-dimethyl-N-[1-(oxetan-3-yl)-1H-pyrazol-4-yl]-1H-pyrrole-3-carboxamide]
IC50 [1]: 11.7 nM | IC50 ([2]; RS4-11, 48 h): 344 nM

Cc1c(C(=O)N(c2ccccc2)c2cnc3c(c2)CCN3C)cc(-c2cc(Cl)ccc2C(=O)N2Cc3ccccc3C[C@H]2CN2CCOCC2)n1C [Example 129, 5-(5-Chloro-2-{[(3S)-3-(morpholin-4-ylmethyl)-3,4-dihydroisoquinolin-2(1H)-yl]carbonyl}phenyl)-1,2-dimethyl-N-(1-methyl-2,3-dihydro-1H-pyrrolo[2,3-b]-pyridin-5-yl)-N-phenyl-1H-pyrrole-3-carboxamide]
IC50 [1]: 18.1 nM | IC50 ([2]; RS4-11, 48 h): 275 nM

Cc1c(C(=O)N(c2ccc(O)c(F)c2)c2cnn(C)c2)cc(-c2cc(Cl)ccc2C(=O)N2Cc3ccccc3C[C@H]2CN2CCOCC2)n1C [Example 399, 5-(5-Chloro-2-{[(3S)-3-(morpholin-4-ylmethyl)-3,4-dihydroisoquinolin-2(1H)-yl]carbonyl}phenyl)-N-(3-fluoro-4-hydroxyphenyl)-1,2-dimethyl-N-(1-methyl-1H-pyrazol-4-yl)-1H-pyrrole-3-carboxamide hydrochloride]
IC50 [1]: 9.9 nM | IC50 ([2]; RS4-11, 48 h): 155 nM

Cc1c(N(C(=O)c2cc(-c3cc(F)ccc3C(=O)N3Cc4ccccc4C[C@H]3CN3CCOCC3)n(C)c2C)c2ccc(O)cc2)cc(C#N)n1C [Example 421, N-(5-Cyano-1,2-dimethyl-1H-pyrrol-3-yl)-5-(5-fluoro-2-{[(3S)-3-(morpholin-4-ylmethyl)-3,4-dihydroisoquinolin-2(1H)-yl]carbonyl}phenyl)-N-(4-hydroxyphenyl)-1,2-dimethyl-1H-pyrrole-3-carboxamide hydrochloride]
IC50 [1]: 2.5 nM | IC50 ([2]; RS4-11, 48 h): 3.73 nM

Cc1c(N(C(=O)c2cc(-c3cc(Cl)ccc3C(=O)N3Cc4ccccc4C[C@H]3CN3CCOCC3)n(C)c2C)c2ccccc2)cc(C#N)n1C [Example 441, 5-(5-Chloro-2-{[(3S)-3-(morpholin-4-ylmethyl)-3,4-dihydroisoquinolin-2(1H)-yl]carbonyl}phenyl)-N-(5-cyano-1,2-dimethyl-1H-pyrrol-3-yl)-1,2-dimethyl-N-phenyl-1H-pyrrole-3-carboxamide hydrochloride]
IC50 [1]: 3.5 nM | IC50 ([2]; RS4-11, 48 h): 132 nM

Cc1c(C(=O)N(c2ccc(O)cc2)c2cccc(C#N)n2)cc(-c2cc(Cl)ccc2C(=O)N2Cc3ccccc3C[C@H]2CN2CCOCC2)n1C [Example 109, 5-(5-Chloro-2-{[(3S)-3-(morpholin-4-ylmethyl)-3,4-dihydroisoquinolin-2(1H)-yl]carbonyl}phenyl)-N-(6-cyanopyridin-2-yl)-N-(4-hydroxyphenyl)-1,2-dimethyl-1H-pyrrole-3-carboxamide hydrochloride]
IC50 [1]: 91.5 nM | IC50 ([2]; RS4-11, 48 h): 930 nM

Cc1c(C(=O)N(c2ccc(O)cc2)c2ccc(F)c(C#N)c2)cc(-c2cc(Cl)ccc2C(=O)N2Cc3ccccc3C[C@H]2CN2CCOCC2)n1C [Example 401, 5-(5-Chloro-2-{[(3S)-3-(morpholin-4-ylmethyl)-3,4-dihydroisoquinolin-2(1H)-yl]carbonyl}phenyl)-N-(3-cyano-4-fluorophenyl)-N-(4-hydroxyphenyl)-1,2-dimethyl-1H-pyrrole-3-carboxamide hydrochloride]
IC50 [1]: 8 nM | IC50 ([2]; RS4-11, 48 h): 24.3 nM

Cc1c(N(C(=O)c2cc(-c3cc(Cl)ccc3C(=O)N3Cc4ccccc4C[C@H]3CCCN3CCOCC3)n(C)c2C)c2ccc(O)cc2)cc(C#N)n1C [Example 412, 5-(5-Chloro-2-{[(3R)-3-[3-(morpholin-4-yl)propyl]-3,4-dihydroisoquinolin-2(1H)-yl]carbonyl}phenyl)-N-(5-cyano-1,2-dimethyl-1H-pyrrol-3-yl)-N-(4-hydroxyphenyl)-1,2-dimethyl-1H-pyrrole-3-carboxamide hydrochloride]
IC50 [1]: 3.1 nM | IC50 ([2]; RS4-11, 48 h): 0.398 nM

Cc1c(C(=O)N(c2ccc(O)cc2)c2cnc3c(c2)CCN3C)cc(-c2ccccc2C(=O)N2Cc3ccccc3C[C@H]2CN2CCOCC2)n1C [Example 410, N-(4-Hydroxyphenyl)-1,2-dimethyl-N-(1-methyl-2,3-dihydro-1H-pyrrolo[2,3-b]pyridin-5-yl)-5-(2-{[(3S)-3-(morpholin-4-ylmethyl)-3,4-dihydroisoquinolin-2(1H)-yl]carbonyl}phenyl)-1H-pyrrole-3-carboxamide hydrochloride]
IC50 [1]: 9.9 nM | IC50 ([2]; RS4-11, 48 h): 61.6 nM

Cc1c(C(=O)N(C)c2ccc(O)cc2)cc(-c2cc(CNC(=O)Oc3ccccc3)ccc2C(=O)N2Cc3ccccc3C[C@H]2C)n1C [Example 40, Phenyl (3-{4-[(4-hydroxyphenyl)(methyl)carbamoyl]-1,5-dimethyl-1H-pyrrol-2-yl}-4-{[(3R)-3-methyl-3,4-dihydroisoquinolin-2(1H)-yl]carbonyl}benzyl)-carbamate]
IC50 [1]: 64.4 nM | IC50 [2]: 431 nM
